Like-named read-outs stand apart in the source and are kept apart here. Where a SMILES comes first, the peptide text is derived from it. [ ]: non-standard residue; d: D form. The star is where a group is joined. Sta = CC(C)C[C@H](N)[C@@H](O)CC(=O)O; Isovaleryl = CC(C)CC(=O)*
Experiments:
[1] = test system: Delayed-Type Hypersensitivity (DTH) to sheep red blood cells (SRBC); experiment: Suppression of delayed-type hypersensitivity (SRBC footpad swelling); assay type: in vivo, mouse; settings: for inhibition in vivo at 1 mg: Erythrocyte; for suppression of DTH reaction: anti-inflammatory drugs and protease-inhibitors, 1 mg./mouse
Procedure: The compounds of Formula (I) show suppression of various delayed-type hypersensitivity. In reference to the method by Lagrange [J. Exp. Med. 139, 528 (1974)], 10^8 sheep red blood cells (SRBC) without adjuvant were subcutaneously injected into the mouse hind footpad to immunize the animal. Four days later the animals were challenged by subcutaneous injection of 10^8 SRBC into another footpad. DTH response was measured as the increase in the thickness of footpad 24 hours after the injection of SRBC.
Varying doses of Compound-1 were administered orally or intraperitoneally either at the time of immunization (day 0) or challenge (day 4).
In FIG. 1 the ordinate indicates the swelling (× 0.1 mm.) of mice footpads on day 5 and the abscissa indicates the dose of Compound-1 per mouse administered by the oral (right) and intraperitoneal (left) routes. Solid line curve indicates the relationship when Compound-1 was administered on day 0 and the dotted line curve indicates the relationship when given on day 4.
The compounds were administered intraperitoneally in a dose 1 mg./mouse at the time of immunization (day 0) or challenge (day 4). Table 1 includes the results of humoral antibody response described later.

[2] = test system: primary antibody formation to sheep red blood cells (SRBC), spleen cells; experiment: Suppression of primary antibody formation (plaque forming cells, Jerne's method); assay type: in vivo, mice (ddY-strain); settings: for inhibition in vivo at 1 mg: Erythrocyte, ip, 96 h, read-out: Suppression, Plaque Forming Cells (suppression rate of primary antibody formation)
Procedure: 10^8 sheep red blood cells (SRBC) were injected intravenously into ddY-strain mice to immunize the animals, when the compounds of Formula (I) were administered intraperitoneally.
Each compound was administered intraperitoneally in the dosage of 1 mg./mouse.

[3] = Acute toxicity, intraperitoneal; settings: mouse, in vivo, ip, mice, read-out: LD50 (approximate)
Procedure: Acute toxicological studies were carried out on mice by intraperitoneal administration of the compounds of Formula (I). The approximate LD50 values for representative compounds are given as follows: […]

[4] = test system: passive cutaneous anaphylaxis (PCA); experiment: Suppression of passive cutaneous anaphylaxis (PCA); assay type: in vivo, guinea pigs; settings: oral 100 mg./kg.; dilution giving a 10 mm. diameter blue zone; control 1060
Procedure: The compounds of Formula (I) are active in suppressing passive cutaneous anaphylaxis (PCA) in guinea pigs. Guinea pigs received intradarmally serial dilutions of antiserum (0.1 ml.), which was obtained from guinea pigs immunized with a mixture of egg albumin and Freund's complete adjuvant. At the time of sensitization with antiserum, the compound of Formula (I) was administered either orally (100 mg./kg.) or intraperitoneally (50 mg./kg.).
Four hours later the animals were challenged by intravenous injection of a mixture of 5 mg. egg albumin and Evans blue dye. The reaction was measured 30 minutes later by the blue zone which emerged at the point of antiserum injection.

[5] = test system: carrageenin-induced edema; settings: 1 mg./mouse; cited from earlier work
[6] = 96 h, 1 mg./mouse i.p., at challenge (day 4), read-out: Suppression, Delayed-Type Hypersensitivity, Administered at Induction (suppression rate)
[7] = ip, 0 h, 1 mg./mouse i.p., at immunization (day 0), read-out: Suppression, Delayed-Type Hypersensitivity, Administered at Immunization (suppression rate)

| SMILES | inhibition in vivo at 1 mg [1, 6] [%] | inhibition in vivo at 1 mg [1, 7] [%] | inhibition in vivo at 1 mg ([2]; 1 mg./mouse i.p.) [%] | LD50 [3] [mg/kg] | also measured |
| --- | --- | --- | --- | --- | --- |
| COc1c(Cl)cc(NC(=O)c2ccccc2O)cc1Cl [Compound 3] | > 75 | 0 to 25 | 50 to 75 |  |  |
| CCC(=O)Oc1ccccc1C(=O)Nc1cc(Cl)c(OC(=O)CC)c(Cl)c1 [Compound 5] | > 75 | 0 to 25 | 50 to 75 |  |  |
| O=C(Oc1ccccc1C(=O)Nc1cc(Cl)c(OC(=O)c2ccccc2)c(Cl)c1)c1ccccc1 [Compound 6] | > 75 | 0 to 25 | > 75 | 2800 |  |
| CC(=O)Oc1ccccc1C(=O)Nc1cc(Cl)cc(Cl)c1OC(C)=O [Compound 7] | > 75 | 0 to 25 | 50 to 75 | > 3000 |  |
| CC(=O)Oc1ccccc1C(=O)Nc1cc(Cl)c(O)c(Cl)c1 [Compound 8] | 0 to 25 | 0 to 25 | 25 to 50 |  |  |
| O=C(O)COc1c(Cl)cc(NC(=O)c2ccccc2O)cc1Cl [Compound 9] | > 75 | 0 to 25 | 0 to 25 |  |  |
| O=C(Nc1cc(Cl)c(O)c(Cl)c1)c1ccc(F)cc1O [Compound 10] | > 75 | 0 to 25 | 25 to 50 |  |  |
| Cc1ccc(C(=O)Nc2cc(Cl)c(O)c(Cl)c2)c(O)c1 [Compound 11] | 0 to 25 | > 75 | 25 to 50 |  |  |
| O=C(Nc1cc(Br)cc(Br)c1O)c1ccccc1O [Compound 13] | 50 to 75 | 50 to 75 | 0 to 25 | 1280 |  |
| CCOc1c(Br)cc(NC(=O)c2ccccc2O)cc1Br [Compound 14] | > 75 | 50 to 75 | 0 to 25 |  |  |
| CCC(=O)Oc1ccccc1C(=O)Nc1cc(Br)cc(Br)c1OC(=O)CC [Compound 15] | 50 to 75 | 50 to 75 | 0 to 25 | 2200 |  |
| Cc1ccc(C(=O)Nc2cc(Br)c(O)c(Br)c2)c(O)c1 [Compound 16] | > 75 | 50 to 75 | 0 to 25 |  |  |
| O=C(Nc1cc(F)c(O)c(Cl)c1)c1ccccc1O [Compound 17] | > 75 | 0 to 25 | > 75 |  |  |
| COc1c(F)cc(NC(=O)c2ccc(Cl)cc2O)cc1Cl [Compound 18] | > 75 | 0 to 25 | 25 to 50 |  |  |
| Cc1cc(Cl)cc(NC(=O)c2ccccc2O)c1O [Compound 19] | 25 to 50 | 0 to 25 | 25 to 50 | 1800 |  |
| Cc1cc(Cl)c(O)c(NC(=O)c2ccccc2O)c1 [Compound 20] | > 75 | 0 to 25 | 50 to 75 |  |  |
| O=C(Nc1cc([N+](=O)[O-])cc([N+](=O)[O-])c1O)c1ccccc1O [Compound 21] |  |  |  |  | inhibition in vivo at 1 mg ([1]; Mus musculus, 96 h, read-out: Suppression, Delayed-Type Hypersensitivity, Administered at Induction (suppression rate)): > 75%; inhibition in vivo at 1 mg ([1]; Mus musculus, ip, 0 h, read-out: Suppression, Delayed-Type Hypersensitivity, Administered at Immunization (suppression rate)): 50 to 75%; inhibition in vivo at 1 mg ([2]; Mus musculus): 0 to 25% |

| SMILES | inhibition in vivo at 1 mg [1, 6] [%] | inhibition in vivo at 1 mg [1, 7] [%] | inhibition in vivo at 1 mg ([2]; 1 mg./mouse i.p.) [%] | LD50 [3] [mg/kg] | also measured |
| --- | --- | --- | --- | --- | --- |
| O=C(Nc1ccc(O)c(Cl)c1)c1ccccc1O [Compound 22] | 0 to 25 | 0 to 25 | > 75 |  |  |
| O=C(Nc1cccc(Cl)c1O)c1ccccc1O [Compound 23] | 0 to 25 | 0 to 25 | 50 to 75 | 1550 |  |
| CCOc1ccc(NC(=O)c2ccc(F)cc2O)cc1Cl [Compound 24] | 50 to 75 | 0 to 25 | 25 to 50 |  |  |
| CC(=O)Oc1ccccc1C(=O)Nc1cccc(Cl)c1OC(C)=O [Compound 25] | 25 to 50 | 0 to 25 | 50 to 75 | 2500 |  |
| O=C(Nc1ccc(O)cc1)c1ccccc1O [Compound 26] | 50 to 75 | 0 to 25 | 50 to 75 |  |  |
| COc1ccc(NC(=O)c2ccc(F)cc2O)cc1 [Compound 28] | > 75 | 0 to 25 | > 75 | 2800 |  |
| CCOc1ccc(NC(=O)c2ccc(F)cc2O)cc1 [Compound 31] | > 75 | 0 to 25 | 50 to 75 |  |  |
| COc1ccc(NC(=O)c2ccc(C)cc2OC(C)=O)cc1 [Compound 32] |  |  |  |  | Suppression, Delayed-Type Hypersensitivity, Administered at Induction (suppression rate) ([1]; 1 mg./mouse i.p., at challenge (day 4)): + (25 - 50%+-); Suppression, Delayed-Type Hypersensitivity, Administered at Immunization (suppression rate) ([1]; 1 mg./mouse i.p., at immunization (day 0)): - (0 - 25% +-); Suppression, Plaque Forming Cells (suppression rate of primary antibody formation) ([2]; 1 mg./mouse i.p.): - (0 - 25% +-) |
| CC(=O)Oc1ccccc1C(=O)Nc1cc(Cl)c(OC(C)=O)c(Cl)c1 [Compound-4, 2,4'-Diacetoxy-3',5'-dichlorobenzanilide] | > 75 | 0 to 25 | 50 to 75 |  |  |
| O=C(Nc1cc(Br)c(O)c(Br)c1)c1ccccc1O [Compound-12, 3',5'-Dibromo-2,4'-dihydroxybenzanilide] | 50 to 75 | > 75 | 0 to 25 | 1100 | Max. Dilution of Antiserum, Oral [4]: 548 |
| COc1ccc(NC(=O)c2ccccc2O)cc1 [Compound-27, 2-Hydroxy-4'-methoxybenzanilide] | > 75 | 0 to 25 | > 75 | > 3000 | Max. Dilution of Antiserum, Oral [4]: 284 |
| COc1ccc(NC(=O)c2ccc(C)cc2O)cc1 [Compound-29, 2-Hydroxy-4-methyl-4'-methoxybenzanilide] | > 75 | 0 to 25 | 25 to 50 | 2500 |  |
| CC(=O)Oc1ccccc1C(=O)O [aspirin, reference compound] |  |  |  |  | suppression of DTH reaction [1]: little suppression of this DTH reaction; suppression of carrageenin-induced edema [5]: strongly suppress carrageenin-induced edema |
| CC(C)C[C@H](NC(=O)[C@@H](NC(=O)N[C@@H](Cc1ccccc1)C(=O)O)[C@@H]1CCN=C(N)N1)C(=O)N[C@H](C=O)Cc1ccccc1 [chymostatin, reference compound] |  |  |  |  | suppression of DTH reaction [1]: little suppression of this DTH reaction; suppression of carrageenin-induced edema [5]: strongly suppress carrageenin-induced edema |
| CC(=O)N[C@@H](CC(C)C)C(=O)N[C@@H](CC(C)C)C(=O)N[C@H](C=O)CCCNC(=N)N [leupeptin, reference compound] |  |  |  |  | suppression of DTH reaction [1]: little suppression of this DTH reaction; suppression of carrageenin-induced edema [5]: strongly suppress carrageenin-induced edema |
| CC(C)CC(=O)N[C@H](C(=O)N[C@H](C(=O)N[C@@H](CC(C)C)[C@@H](O)CC(=O)N[C@@H](C)C(=O)N[C@@H](CC(C)C)[C@@H](O)CC(=O)O)C(C)C)C(C)C [pepstatin, reference compound] (Isovaleryl-VV[Sta]A[Sta]-OH) |  |  |  |  | suppression of DTH reaction [1]: little suppression of this DTH reaction; suppression of carrageenin-induced edema [5]: strongly suppress carrageenin-induced edema |
